The values below come from paper PMC6271245, “Discovery of Gramine Derivatives That Inhibit the Early Stage of EV71 Replication in Vitro” (Molecules, 2014).

Values after ≈ are worked out from the molar mass of the structure shown. Read-outs that look alike come from different tables or passages of the source.

A short description of series [1]: Cytotoxicity on uninfected Vero cells, MTT. In kind it is cell-based. The settings on record: African green monkey; concentration reducing cell viability by 50%; uninfected Vero cells, 48 h, MTT; read-out: CC50 (µg/mL) Vero. As to the method:
(§1) The antiviral activities of gramine and its derivatives against EV71 based on inhibition of virus-induced cytopathogenicity effects (CPEs) in African green monkey kidney cells (Vero) and rhabdomyosarcoma cells (RD) were examined. The cytotoxic effects were also evaluated. The inhibitory activities expressed as half maximal effective concentration (EC50) values and selectivity indexes (SI) for the target compounds are presented in Table 1, and the dose-dependent antiviral effects are shown in Figure 1A.
(§2) The activity of compounds against EV71 was determined based on the inhibition of virus-induced cytopathogenicity effects (CPEs) in acutely infected cells. Vero and RD cells grown to 90% confluency in 96-well dishes were washed with phosphate buffered saline (PBS) and infected with 100 TCID50 of EV71 mixed with serial dilutions of tested compounds for 1.5 h at 37 °C. The inoculum was aspirated and cells were incubated with DMEM and test compounds at 37 °C, 5% CO2 for 48 h. The CPEs were observed microscopically and the viability of the cells was determined with a 3-(4,5-dimethylthiazol-2-yl)-2,5-diphenyltetrazolium bromide (MTT) assay. The concentrations required for the test compounds to achieve 50% protection from virus-induced cytopathogenicity (EC50) were determined. Adverse effects of these compounds on the host cells were also assessed by means of the MTT-method; by exposing uninfected cells to various concentrations of test compounds for 48 h at 37 °C, the viability of the cells was detected. The 50% cell cytotoxic concentrations (CC50) of compounds were calculated with the SPSS software (SPSS, Chicago, IL, USA). Selectivity indexes were calculated as the ratio of CC50: EC50.
(§3) Cell viability was assessed by an MTT assay, which functions based on the reduction of a MTT into formazan dye by active mitochondria. The cells were treated with 100 µL of MTT (1 mg/mL, Sigma, St. Louis, MO, USA) and incubated at 37 °C for 4 h. The reaction was blocked by DMSO and measured in a microplate reader (Bio-Tek Instruments, Winooski, VT, USA) at 492 nm. The untreated control was arbitrarily set as 100%.

For series [2], the system named is EV71. The series is described as follows: Direct inactivation of virions (virucidal test), TCID50 titration. In kind it is cell-based, Enterovirus 71. The conditions noted are these: 10^4 TCID50 EV71 incubated with 20 µg/mL 4a, 40 µg/mL 4i, 80 µg/mL 4r or 4s for 24 h at 4 °C; data not shown. Here is the method: Based on structure specificity, antiviral activity, and selectivity therapeutic index, compounds 4a, 4i, 4r and 4s were chosen for further investigation on modes of action against EV71 infection. To determine whether these gramine derivatives inactivated virions directly, 10^4 TCID50 (median tissue culture infective dose) of EV71 suspension was incubated with 20 µg/mL 4a, 40 µg/mL 4i, or 80 µg/mL 4r or 4s for 24 h at 4 °C; subsequently, the virus titers in the mixture were measured by inoculating 100-fold dilution of the mixtures beyond the effective concentrations of the compounds into the host cells. The TCID50 values were calculated by the Reed-Muench method based on the CPE observed on day 2 post inoculation (pi). […] Thus, these compounds appear not to be virucidal for the viruses tested.
(§4) The virus suspension, serially diluted 10-fold with DMEM containing 2% FBS, was inoculated to cells in a 96-well plate. After 1 h incubation at 37 °C in 5% CO2, unbinding virus was washed out and MM was added to the cells. After 2 days, the infected cells were monitored for cytopathic effects (CPEs). The virus titer was calculated by the Reed–Muench method.

For series [3], the system named is EV71. The series is described as follows: Effect on EV71 adsorption, intracellular virus titration. In kind it is cell-based, Enterovirus 71. The settings on record: EV71 (10^4 TCID50) treated with 10 µg/mL 4a, 20 µg/mL 4i, 40 µg/mL 4r or 4s, spinoculated onto RD cells, adsorbed 2 h. Here is the method: Mock- or 10 µg/mL 4a, 20 µg/mL 4i, or 40 µg/mL 4r or 4s-treated EV71 (10^4 TCID50) were spinoculated onto cells and adsorbed for 2 h. The infected cells were harvested following freeze–thaw cycles and then subjected to virus titration.
Figure 2 Analysis of modes of action against EV71 of gramine derivatives. Analysis of effective stage. The RD cells were treated with tested compounds before, simultaneously or after EV71 (100 TCID50) inoculation: antiviral effects were detected by measuring (A) cell viability and (B) progeny virus yields (10 µg/mL 4a, 20 µg/mL 4i, 40 µg/mL 4r and 4s) 48 h post infection; (C) Analysis of the effects on EV71 adsorption. Mock- or 10 µg/mL 4a, 20 µg/mL 4i, 40 µg/mL 4r and 4s-treated EV71 (10^4 TCID50) was spinoculated onto RD cells and adsorbed for 2 h; intracellular virus was subjected to titration using the TCID50 method; (D) Effects on EV71 release from RD cells. RD cells infected with 100 TCID50 of EV71 were incubated with 10 µg/mL 4a, 20 µg/mL 4i, 40 µg/mL 4r and 4s for 12 h, of both cells and supernatants (intra- and extracellular), or of cells or supernatants harvested separately for virus titration. […] Values represent the mean ± standard deviation of three independent experiments.
as §4

A short description of series [4]: Cytotoxicity on uninfected RD cells, MTT. Format: cell-based. The settings on record: human, concentration reducing cell viability by 50%. As to the method:
Human RD cells and Vero cells were maintained in Dulbecco’s modified Eagle’s medium (Gibco-Invitrogen, Carlsbad, CA, USA) supplemented with 10% fetal bovine serum (FBS; Gibco), 100 U/mL of penicillin and streptomycin, and 2 mM L-glutamine. Enterovirus 71 (EV71) was kindly provided by Zhanqiu Yang (Institute of Medical Virology, School of Medicine, Wuhan University, China) and propagated in RD cell lines. The virus titer was determined by the standard method of median tissue culture infective dose (TCID50) on RD cells.
as §2, §3

In a further series the test system is Enterovirus 71 (EV71). The series can be described thus: Inhibition of EV71-induced cytopathogenicity (CPE) in RD cells, MTT. In kind it is cell-based. The conditions noted are these: for EC50: Enterovirus A, read-out: EC50 (µg/mL) RD; for inhibition of virus-induced CPE (morphology): 10 µg/mL 4a, 20 µg/mL 4i, 40 µg/mL 4r or 4s, 48 h pi. As to the method:
as §1, §2, §3

Setting [5] is: concentration for 50% protection from virus-induced cytopathogenicity, RD cells, 100 TCID50 EV71, 48 h, MTT.

As for `Cn1cc(C(Nc2ccccn2)c2ccc(F)cc2)c2ccccc21` (stereo not drawn) [Compound 4i], the CC50 at 48 h in series [1] is 71.1 ± 3.8 µg/mL (≈ 215 µM); in series [4], 65.2 ± 7.6 µg/mL (≈ 197 µM). Also, the “virus titers of mixture with vs without compound (virucidal effect)” value in the series with EV71 [2] is listed as “No significant difference in virus titers”. The “intracellular virus titer during virus attachment” value in the series on EV71 [3] was “no significant decrease in virus titer”. Moreover, the EC50 with Enterovirus 71 (EV71) (setting [5]) is 6.1 ± 3.2 µg/mL (≈ 18.4 µM). Besides, the “inhibition of virus-induced CPE (morphology)” value (shortened to “inhibition … (morphology)”) with Enterovirus 71 (EV71) (RD cells) is “nearly complete inhibition of CPE”.

With `c1ccc(C(Nc2nc3ccccc3s2)c2c[nH]c3ccccc23)nc1` (stereo not drawn) [Compound 4s], the values for the CC50 at 48 h in series [1] and in series [4] were 109 ± 16.8 µg/mL (≈ 305 µM) and 137 ± 9.3 µg/mL (≈ 383 µM), respectively. For the same compound, in the series on EV71 [2], the “virus titers of mixture with vs without compound (virucidal effect)” value is “No significant difference in virus titers”. Moreover, in the series on EV71 [3], the “intracellular virus titer during virus attachment” value is given as “no significant decrease in virus titer”. In addition, in the series on Enterovirus 71 (EV71) (EV71, RD, 48 h), the EC50 turned out to be 9.1 ± 3.1 µg/mL (≈ 25.5 µM). Besides, the “inhibition … (morphology)” value in the series on Enterovirus 71 (EV71) (RD cells) is listed as “nearly complete inhibition of CPE”.

Regarding `c1ccc(C(Nc2ccccn2)c2c[nH]c3ccccc23)cc1` (stereo not drawn) [Compound 4a], the CC50 at 48 h in series [1] was 32.6 ± 3.5 µg/mL (≈ 109 µM); in series [4], 17.2 ± 1.6 µg/mL (≈ 57.5 µM). Also, the “virus titers of mixture with vs without compound (virucidal effect)” value in the series with EV71 [2] is given as “No significant difference in virus titers”. Moreover, in the series with EV71 [3], the “intracellular virus titer during virus attachment” value is listed as “no significant decrease in virus titer”. For the same compound, the EC50 in the series with Enterovirus 71 (EV71) (setting [5]) is 5.5 ± 2.4 µg/mL (≈ 18.4 µM). In the series on Enterovirus 71 (EV71) (RD cells), the “inhibition … (morphology)” value is listed as “nearly complete inhibition of CPE”.

With `Cn1cc(C(Nc2nc3ccccc3s2)c2ccccc2F)c2ccccc21` (stereo not drawn) [Compound 4r], the CC50 at 48 h in series [1] came out at 132 ± 8.3 µg/mL (≈ 342 µM); in series [4], 150 ± 16.2 µg/mL (≈ 387 µM). Moreover, the “virus titers of mixture with vs without compound (virucidal effect)” value with EV71 [2] is recorded as “No significant difference in virus titers”. Moreover, the “intracellular virus titer during virus attachment” value in the series on EV71 [3] was “no significant decrease in virus titer”. Further, in the series on Enterovirus 71 (EV71) (setting [5]), the EC50 turned out to be 7.3 ± 1.3 µg/mL (≈ 18.8 µM). The “inhibition … (morphology)” value with Enterovirus 71 (EV71) (RD cells) is recorded as “nearly complete inhibition of CPE”.
